Measured values: PubChem BioAssay (NCI)
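Exposure lasted 48 hours, with cells grown in 96-well plates and compounds tested at five concentrations. Definition used: TGI = concentration required for complete inhibition of growth.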

Experiments:
Assay in all cases: growth of human tumour cells (NCI), 48 h
HCT-116 colon = system: HCT-116 colon
HT29 colon = system: HT29 colon
MALME-3M melanoma = system: MALME-3M melanoma
MCF7 breast = system: MCF7 breast
NCI-H226 lung = system: NCI-H226 lung
OVCAR-3 ovarian = system: OVCAR-3 ovarian
OVCAR-4 ovarian = system: OVCAR-4 ovarian
SNB-19 CNS = system: SNB-19 CNS
UACC-62 melanoma = system: UACC-62 melanoma
UO-31 renal = system: UO-31 renal
SF-539 CNS = system: SF-539 CNS

| SMILES | TGI (HCT-116 colon) [µM] | TGI (HT29 colon) [µM] | TGI (MALME-3M melanoma) [µM] | TGI (MCF7 breast) [µM] | TGI (NCI-H226 lung) [µM] | TGI (OVCAR-3 ovarian) [µM] | TGI (OVCAR-4 ovarian) [µM] | TGI (SNB-19 CNS) [µM] | TGI (UACC-62 melanoma) [µM] | TGI (UO-31 renal) [µM] | TGI (SF-539 CNS) [µM] |
| --- | --- | --- | --- | --- | --- | --- | --- | --- | --- | --- | --- |
| Oc1ccc(-c2nc(-c3cccnc3)c(-c3ccc(Cl)cc3)[nH]2)cc1 | 31.6 | 28.4 | 26.8 | 24.7 | 33.3 | 28 | 23.3 | 31.2 | 25.9 | 22.9 | – |
| NC(N)=NCCC[C@H](N)C(=O)NCC(=O)N[C@@H](CC(=O)O)c1ncc(NC(=O)C(F)(F)F)o1 | > 25 | > 25 | > 25 | > 25 | > 25 | > 25 | > 25 | – | > 25 | > 25 | > 25 |
| CSc1ncnc2c1ncn2C1CC(Oc2ccc(C)cc2)C(COc2ccc(C)cc2)O1 (centres undefined) | > 100 | > 100 | > 100 | > 100 | > 100 | > 100 | > 100 | > 100 | > 100 | – | > 100 |
| CC(C)=CCC/C(C)=C/C=C/C(C)=C/C=C/C(C)=C/C=C/C=C(C)/C=C/C=C(C)/C=C/[C@H]1C(C(C)(C)O)CC[C@]1(C)O (some centres undefined) | 31.2 | 86.2 | – | 35.5 | > 100 | 37.8 | > 100 | – | – | 47 | > 100 |
| CC(C)(C)OC(=O)NC(Cc1ccc(OCc2ccccc2)cn1)C(=O)N1CCCCC1 (centres undefined) | > 100 | > 100 | > 100 | > 100 | – | > 100 | – | > 100 | > 100 | 71.4 | > 100 |
| CCOC(=O)c1cc(C(O)P2(=O)N(CC(C)(C)C)[C@@H]3CCCC[C@H]3N2CC(C)(C)C)cn1C(=O)OC(C)(C)C (some centres undefined) | 23.2 | 26.7 | 33.6 | 51 | 39.4 | 25 | 77.7 | 46.2 | 28.6 | 28.7 | – |
| N#CC(NC12CC3CC(CC(C3)C1)C2)c1ccccc1C(F)(F)F (centres undefined) | > 100 | > 100 | > 100 | – | > 100 | > 100 | > 100 | > 100 | – | > 100 | > 100 |
| Oc1c(CN2CCOCC2)ccc2cccnc12 | > 10 | > 10 | > 10 | > 10 | > 10 | > 10 | > 10 | > 10 | – | > 10 | > 10 |
| O=P(Nc1ccc(Cl)cc1)(Oc1ccccc1)N(CCCl)CCCl (centres undefined) | > 100 | > 100 | > 100 | – | > 100 | > 100 | > 100 | – | > 100 | > 100 | > 100 |
| Cc1ccc2c(c1)C(C(=O)N[C@@H]1C(=O)N3[C@@H]1SC(C)(C)[C@@H]3C(=O)O)OCCC2 (some centres undefined) | > 100 | > 100 | – | > 100 | > 100 | > 100 | > 100 | > 100 | > 100 | > 100 | > 100 |
| CC1=NNC(N)=N/C1=C\C(Sc1ccc(Cl)cc1)c1ccc([N+](=O)[O-])cc1 (centres undefined) | > 100 | > 100 | > 100 | > 100 | 68.1 | – | > 100 | > 100 | > 100 | > 100 | – |
| O=c1[nH]nc(-c2ccccc2)c2[nH]c3c4ccccc4ccc3c12 | > 100 | – | > 100 | > 100 | > 100 | – | – | > 100 | > 100 | – | 3.17 |
| COCN(CCC1=CCCCC1)C(=O)OC | > 100 | > 100 | > 100 | > 100 | – | > 100 | > 100 | > 100 | > 100 | > 100 | – |
| C[C@]12CCC(=O)O[C@H]1CCCCO2 | > 100 | > 100 | > 100 | > 100 | > 100 | > 100 | – | – | > 100 | – | > 100 |
| O=C1C(CN2CCCCC2)CCC1CN1CCCCC1 (centres undefined) | 49.5 | 40.4 | 49 | 43 | > 100 | 26.5 | – | > 100 | 32.3 | 22.1 | 56.1 |
| COC(CNC(=O)C(C)NC(=O)CCc1ccccc1)OC (centres undefined) | > 100 | > 100 | > 100 | > 100 | > 100 | – | > 100 | > 100 | > 100 | > 100 | > 100 |
| O=C1CCC(c2ccc(Cl)cc2)=NN1c1nsc2ccccc12 | 51.2 | > 100 | – | – | – | 44.7 | > 100 | > 100 | > 100 | 59.1 | > 100 |
| OCC(O)COCn1nncc1Cn1ncc2c(SCc3ccccc3)ncnc21 (centres undefined) | > 100 | > 100 | – | > 100 | – | > 100 | > 100 | > 100 | > 100 | > 100 | > 100 |
| CCOC(=O)c1nc2ccc(C(F)(F)F)cc2nc1NCc1cc(OC)c(OC)c(OC)c1 | > 100 | > 100 | – | > 100 | > 100 | > 100 | – | > 100 | > 100 | 99.5 | > 100 |
| CC1OC(OC2C(O[C@H]3CC[C@@]4(C)C(=CC[C@H]5[C@@H]6C[C@@H]7O[C@]8(CC[C@@H](CO)CO8)[C@@H](C)[C@@H]7[C@@]6(C)CC[C@@H]54)C3)OC(CO)C(O)C2OC2OC(CO)C(O)C(O)C2O)C(O)C(O)C1O (some centres undefined) | 3.02 | 4.91 | 3.34 | 3.15 | 3.79 | – | 3.69 | 3.96 | 3.23 | 5.46 | 3.07 |
| CCOC(=O)N/N=C(/N)c1cccc([N+](=O)[O-])c1 | > 100 | > 100 | > 100 | > 100 | – | > 100 | > 100 | > 100 | > 100 | > 100 | > 100 |
| O=Cc1ccc2c(c1)CC1(Cc3ccccc3C1)C2 | > 100 | 51.2 | 36.3 | 66.4 | 73.2 | 28.3 | 48.7 | – | 41.4 | 58.7 | 33.2 |
